Here are results for one compound from patent US4803074A, “FR-900848 substance and preparation thereof” (priority 1987, dated 1989).

The subject of data set [1] is Aspergillus niger IFO 4417. The experiment in a line: MIC (minimal inhibitory concentration), two-fold agar-plate dilution method. Format: cell-based. To be noted: IFO4417, malt extract agar, 37° C., 20 hours. The protocol: (§1) In vitro antimicrobial activity was determined by the two-fold agar-plate dilution method as described below.
(§2) One loopful of an overnight culture of each test strain in malt extract broth was streaked on malt extract agar containing graded concentrations of FR-900848 substance and MIC was determined after incubation at 37° C. for 20 hours.

The next data set deals with Trichophyton asteroides. The description is as above. Conditions: malt extract agar, 37° C., 20 hours. Format: cell-based. The protocol:
as §1, §2

The subject of data set [2] is Mucor rouxianus (Calmette) Wehmer. The description is as above. Format: cell-based. Conditions: 20 h, read-out: MIC (minimal inhibitory concentration). The protocol:
as §1, §2

In the next data set the test system is Aureobasidium pullulans. The description is as above. To be noted: malt extract agar, 37° C., 20 hours. The format is cell-based. The protocol:
as §1, §2

In the next data set the test system is Geotrichum candidum. The data set is described as above. Format: cell-based. To be noted: malt extract agar, 37° C., 20 hours. The protocol:
as §1, §2

The subject of another data set is Fusarium oxysporum. The description is as above. To be noted: malt extract agar, 37° C., 20 hours. The format is cell-based. Here is the method:
as §1, §2

The next data set relates to Sclerotinia arachidis. The description is as above. Format: cell-based. To be noted: malt extract agar, 37° C., 20 hours. The protocol:
as §1, §2

A short description of another data set: Solubility. Format: physicochemical.
Another data set deals with fungi. The experiment in a line: In vitro antimicrobial activity (summary statement). Conditions: for example Aspergillus niger, Geotrichum candidum, Trichophyton asteroides. The format is cell-based. The protocol:
as §1, §2

Data set [3] is described as follows: Acute toxicity by intraperitoneal injection. To be noted: mouse, in vivo, ip, mice (ICR, male, 4 weeks old). The text has this: Acute toxicity of FR-900848 substance in mice (ICR, male, 4 weeks old) by intraperitoneal injection is more than 1.0 g/kg.

Values after ≈ are worked out from the molar mass of the structure shown.

Take `CC1CC1C=CC1CC1C1CC1C1CC1C1CC1C=CC=CC(=O)NCC1OC(N2CCC(=O)NC2=O)C(O)C1O` (centres unmarked) [FR-900848 substance]: the MIC in data set [1] was 0.015 µg/mL (≈ 0.0265 µM); in the data set with Trichophyton asteroides, 0.5 µg/mL (≈ 0.884 µM); in data set [2] it was 0.03 µg/mL (≈ 0.053 µM); against Aureobasidium pullulans, 0.03 µg/mL (≈ 0.053 µM); with Geotrichum candidum, 0.12 µg/mL (≈ 0.212 µM); against Fusarium oxysporum, 0.05 µg/mL (≈ 0.0884 µM). For the same compound, in the data set with Sclerotinia arachidis, the MIC amounted to 0.05 µg/mL (≈ 0.0884 µM). The Solubility result was “slightly soluble” in the data set “Solubility” (chloroform); “soluble” in “Solubility” (dimethylsulfoxide); “slightly soluble” in “Solubility” (ethyl acetate); “slightly soluble” in “Solubility” (methanol); “insoluble” in the data set “Solubility” (water). Moreover, in the data set with fungi, the “antimicrobial activity against fungi” value is “showed antimicrobial activity”. In [3], this compound showed a 50% lethal dose (LD50) of more than 1000 mg/kg.
